{
  "source": "patent US7915402B2",
  "about": "“Antioxidant inflammation modulators: oleanolic acid derivatives with saturation in the C-ring” (Reata Pharmaceuticals, Inc., priority 2008, dated 2011)",
  "key": {"[1]": {"tested_on": "Ferritin heavy chain", "assay": "Induction of ferritin heavy chain mRNA (qPCR)", "format": "cell-based, human", "details": "MDA-MB-435 cells, 16 hours", "procedure": "(§1) FIG. 24. Induction of Ferritin Heavy Chain. MDA-MB-435 human melanoma cells were treated with vehicle (DMSO) or the indicated compounds and concentrations for 16 hours. Ferritin heavy chain mRNA levels were quantified using qPCR and were normalized relative to a DMSO-treated sample run in parallel. Values are averages of duplicate wells.\n(§2) Nrf2 target gene induction. MDA-MB-435 human melanoma cells were treated with vehicle (DMSO) or the indicated compounds and concentrations for 16 hours. HO-1, thioredoxin reductase-1 (TrxR1), γ-glutamylcysteine synthetase (γ-GCS), and ferritin heavy chain mRNA levels were quantified using qPCR and were normalized relative to a DMSO-treated sample run in parallel. Values are averages of duplicate wells. Primer sequences are as follows."}, "[2]": {"tested_on": "NQO1", "assay": "Nrf2 target gene induction, NQO1", "format": "cell-based, human", "details": "MDA-MB-435 cells, 250 nM; fold induction above DMSO control"}, "[3]": {"tested_on": "thioredoxin reductase-1 (TrxR1)", "assay": "Nrf2 target gene induction, TrxR1 mRNA (qPCR)", "format": "cell-based, human", "details": "MDA-MB-435 cells", "procedure": "as §1, with “21.” for “24.”, “HO-1, TrxR1 and γ-GCS.” for “Ferritin Heavy Chain.”, “HO-1, thioredoxin reductase-1 (TrxR1), and γ-glutamylcysteine synthetase (γ-GCS)” for “Ferritin heavy chain”\nas §1, with “22.” for “24.”, “TrxR1.” for “Ferritin Heavy Chain.”, “Thioredoxin reductase-1 (TrxR1)” for “Ferritin heavy chain”, “wells. Compounds 401, 402-19 and 402-53 are comparison compounds (see Example 1).” for “wells.”\nas §2"}, "[4]": {"tested_on": "γ-glutamylcysteine synthetase (γ-GCS)", "assay": "Nrf2 target gene induction, γ-GCS mRNA (qPCR)", "format": "cell-based, human", "details": "MDA-MB-435 cells", "procedure": "as §1, with “21.” for “24.”, “HO-1, TrxR1 and γ-GCS.” for “Ferritin Heavy Chain.”, “HO-1, thioredoxin reductase-1 (TrxR1), and γ-glutamylcysteine synthetase (γ-GCS)” for “Ferritin heavy chain”\nas §1, with “23.” for “24.”, “γ-GCS.” for “Ferritin Heavy Chain.”, “γ-glutamylcysteine synthetase (γ-GCS)” for “Ferritin heavy chain”\nas §2"}, "[5]": {"tested_on": "mice", "details": "sesame oil, N=4"}, "[6]": {"tested_on": "IFNγ-induced NO production in RAW264.7 macrophages", "assay": "Suppression of IFNγ-induced NO production (Griess reagent)", "format": "cell-based, mouse", "details": "Mus musculus; RAW264.7, 20 ng/ml IFNγ 24 h, 2 h pre-treatment", "procedure": "(§3) FIGS. 1-8 and 32-34. Inhibition of NO Production. RAW264.7 macrophages were pre-treated with DMSO or drugs at various concentrations (nM) for 2 hours, then treated with 20 ng/ml IFNγ for 24 hours. NO concentration in media was determined using a Griess reagent system; cell viability was determined using WST-1 reagent.\n(§4) Nitric Oxide production and cell viability. RAW264.7 macrophages were pre-treated with DMSO or drugs for 2 hours, then treated with recombinant mouse IFNγ (Sigma) for 24 hours. NO concentration in media was determined using the Griess reagent system (Promega). Cell viability was determined using WST-1 reagent (Roche)."}, "[7]": {"tested_on": "HO-1", "assay": "Nrf2 target gene induction, HO-1 mRNA (qPCR)", "format": "cell-based, human", "details": "MDA-MB-435 cells", "procedure": "as §1, with “FIGS. 17-20.” for “FIG. 24.”, “HO-1.” for “Ferritin Heavy Chain.”, “HO-1” for “Ferritin heavy chain”\nas §1, with “21.” for “24.”, “HO-1, TrxR1 and γ-GCS.” for “Ferritin Heavy Chain.”, “HO-1, thioredoxin reductase-1 (TrxR1), and γ-glutamylcysteine synthetase (γ-GCS)” for “Ferritin heavy chain”\nas §2"}, "[8]": {"tested_on": "iNOS", "assay": "iNOS suppression, Western blot", "format": "cell-based, mouse", "details": "RAW264.7 (20 ng/ml IFNγ)"}, "[9]": {"tested_on": "Sprague-Dawley rats", "details": "Sprague-Dawley rats, 1,500 mg/m^2/day for 14 days"}, "[10]": {"tested_on": "RAW264.7 macrophages", "assay": "Cell viability, WST-1 reagent", "format": "cell-based, mouse", "details": "Mus musculus, RAW264.7 (20 ng/ml IFNγ)", "procedure": "as §3, §4"}, "[11]": {"details": "400 nM, percent of induction observed for 402"}, "[12]": {"details": "250 nM, fold induction above DMSO control"}},
  "note": "pIC50: −log10 of the molar value. Where two headings read alike, the source gives them in different places.",
  "data": [
    {"smiles": "COC(=O)[C@]12CCC(C)(C)C[C@H]1[C@H]1C(=O)CC3[C@@]4(C)C=C(C#N)C(=O)C(C)(C)[C@@H]4CC[C@@]3(C)[C@]1(C)CC2", "note": "(stereo partly drawn) [Compound 63101, (4aS,6aR,6bR,8aR,12aR,14aR,14bS)-methyl 11-cyano-2,2,6a,6b,9,9,12a-heptamethyl-10,14-dioxo-1,2,3,4,4a,5,6,6a,6b,7,8,8a,9,10,12a,12b,13,14,14a,14b-icosahydropicene-4a-carboxylate]", "values": [
      {"measurement": "Ferritin heavy chain mRNA induction: concentration needed compared with unsaturated counterpart (402, 404)", "setting": "[1]", "value": "higher concentrations"},
      {"measurement": "NQO1 induction", "setting": "[2]", "value": 2, "unit": "fold"},
      {"measurement": "TrxR1 induction", "setting": "[3]; [11]", "value": 47, "unit": "%"},
      {"measurement": "TrxR1 mRNA induction: concentration needed compared with unsaturated counterpart (402, 404)", "setting": "[3]; 16 hours", "value": "higher concentrations"},
      {"measurement": "γ-GCS induction", "setting": "[4]; [12]", "value": 5, "unit": "fold"},
      {"measurement": "γ-GCS induction", "setting": "[4]; [11]", "value": 53, "unit": "%"},
      {"measurement": "γ-GCS mRNA induction: concentration needed compared with unsaturated counterpart (402, 404)", "setting": "[4]; 16 hours", "value": "higher concentrations"},
      {"measurement": "Number of Deaths", "setting": "[5]; oral gavage QDx14, 10 mg/kg", "value": 0},
      {"measurement": "Number of Deaths", "setting": "[5]; oral gavage QDx14, 50 mg/kg", "value": 0},
      {"measurement": "Number of Deaths", "setting": "[5]; oral gavage QDx14, 100 mg/kg", "value": 0},
      {"measurement": "Number of Deaths", "setting": "[5]; oral gavage QDx14, 250 mg/kg", "value": 0},
      {"measurement": "pIC50", "setting": "[6]", "value": "~7.92"},
      {"measurement": "HO-1 induction", "setting": "[7]; [12]", "value": 3, "unit": "fold"},
      {"measurement": "HO-1 induction", "setting": "[7]; [11]", "value": 4, "unit": "%"},
      {"measurement": "iNOS suppr. WB", "setting": "[8]", "value": ">90", "unit": "%"},
      {"measurement": "highest dose without significant toxicity relative to the MTD of RTA 402 in this species", "setting": "[9]", "value": 50, "unit": "fold"},
      {"measurement": "pIC50", "setting": "[10]", "value": 6.70}
    ]}
  ]
}
